Data as given in the NIST ThermoML archive (doi:10.1021/acs.jced.5b00447).
Numbers after ± are expanded uncertainties.

Key:
[1] = for surface tension liquid-gas: wilhelmi plate; for viscosity / speed of sound / mass density: 100 kPa, Liquid; for viscosity: Capillary tube (Ostwald / Ubbelohde) method; for speed of sound: Frequency=3 MHz, Sing-around technique in a fixed-path interferometer; for mass density: Vibrating tube method
[2] = xn = mol fraction of the nth substance listed; details: for surface tension liquid-gas: wilhelmi plate; for viscosity / speed of sound / mass density: 100 kPa, Liquid; for viscosity: Capillary tube (Ostwald / Ubbelohde) method; for speed of sound: Frequency=3 MHz, Sing-around technique in a fixed-path interferometer; for mass density: Vibrating tube method

## CN(C)CCN [2-dimethylamino-1-ethylamine]
[1]; 293.15 K
  surface tension liquid-gas: 26.4 ± 0.4 mN/m
  viscosity: 0.988 ± 0.075 mPa·s
  speed of sound: 1319.6 ± 2.5 m/s
  mass density: 819 ± 2 kg/m3
[1]; 298.15 K
  surface tension liquid-gas: 26.1 ± 0.4 mN/m
  viscosity: 0.895 ± 0.068 mPa·s
  speed of sound: 1300.8 ± 2.5 m/s
  mass density: 814.3 ± 2.1 kg/m3
[1]; 303.15 K
  surface tension liquid-gas: 25.8 ± 0.4 mN/m
  viscosity: 0.819 ± 0.054 mPa·s
  speed of sound: 1279.3 ± 2.5 m/s
  mass density: 810 ± 2 kg/m3
[1]; 313.15 K
  surface tension liquid-gas: 25.2 ± 0.4 mN/m
  viscosity: 0.693 ± 0.045 mPa·s
  speed of sound: 1239 ± 2.5 m/s
  mass density: 801 ± 2 kg/m3
[1]; 323.15 K
  surface tension liquid-gas: 24.5 ± 0.4 mN/m
  viscosity: 0.596 ± 0.039 mPa·s
  speed of sound: 1199.3 ± 2.5 m/s
  mass density: 791 ± 2 kg/m3

## O [water]
[1]; 293.15 K
  surface tension liquid-gas: 72.6 ± 0.3 mN/m
  viscosity: 0.993 ± 0.082 mPa·s
  mass density: 998 ± 2 kg/m3
[1]; 298.15 K
  surface tension liquid-gas: 72.1 ± 0.3 mN/m
  viscosity: 0.891 ± 0.079 mPa·s
[1]; 303.15 K
  surface tension liquid-gas: 71.1 ± 0.3 mN/m
  viscosity: 0.797 ± 0.063 mPa·s
  mass density: 996 ± 2 kg/m3
[1]; 313.15 K
  surface tension liquid-gas: 69.2 ± 0.3 mN/m
  viscosity: 0.654 ± 0.05 mPa·s
  speed of sound: 1529.1 ± 1.6 m/s
  mass density: 992 ± 2 kg/m3
[1]; 323.15 K
  surface tension liquid-gas: 67.7 ± 0.3 mN/m
  viscosity: 0.547 ± 0.043 mPa·s
  mass density: 988 ± 2 kg/m3

## NCCO [2-aminoethan-1-ol]
[1]; 298.15 K
  surface tension liquid-gas: 49.1 ± 0.4 mN/m
  viscosity: 18.74 ± 4.7 mPa·s
  speed of sound: 1719.2 ± 1.9 m/s
  mass density: 1012 ± 2 kg/m3

## CN(C)CCN [2-dimethylamino-1-ethylamine] + NCCO
[2]; 293.15 K, x1 = 0.5
  surface tension liquid-gas: 32.4 ± 0.4 mN/m
  viscosity: 10.74 ± 0.095 mPa·s
  speed of sound: 1498.1 ± 2.2 m/s
  mass density: 941 ± 2 kg/m3
[2]; 303.15 K, x1 = 0.5
  surface tension liquid-gas: 31.6 ± 0.4 mN/m
  viscosity: 7.169 ± 0.065 mPa·s
  speed of sound: 1463.7 ± 2.2 m/s
  mass density: 932 ± 2 kg/m3
[2]; 313.15 K, x1 = 0.5
  surface tension liquid-gas: 30.9 ± 0.4 mN/m
  viscosity: 5.066 ± 0.047 mPa·s
  speed of sound: 1428.9 ± 2.2 m/s
  mass density: 924 ± 2 kg/m3
[2]; 323.15 K, x1 = 0.5
  surface tension liquid-gas: 30.3 ± 0.4 mN/m
  viscosity: 3.517 ± 0.033 mPa·s
  speed of sound: 1394.1 ± 2.2 m/s
  mass density: 916 ± 2 kg/m3

## O [water] + CN(C)CCN
[2]; 293.15 K, x2 = 0
  surface tension liquid-gas: 72.6 ± 0.6 mN/m
  viscosity: 0.993 ± 0.006 mPa·s
  mass density: 998 ± 2 kg/m3
[2]; 303.15 K, x2 = 0
  surface tension liquid-gas: 71.1 ± 0.6 mN/m
  viscosity: 0.797 ± 0.005 mPa·s
  mass density: 996 ± 2 kg/m3
[2]; 313.15 K, x2 = 0
  surface tension liquid-gas: 69.2 ± 0.6 mN/m
  viscosity: 0.654 ± 0.005 mPa·s
  speed of sound: 1529.1 ± 1.6 m/s
  mass density: 992 ± 2 kg/m3
[2]; 323.15 K, x2 = 0
  surface tension liquid-gas: 67.7 ± 0.6 mN/m
  viscosity: 0.547 ± 0.004 mPa·s
  mass density: 988 ± 2 kg/m3

## CN(C)CCO [2-(N,N-dimethylamino)ethanol]
[1]; 298.15 K
  surface tension liquid-gas: 31.3 ± 0.4 mN/m
  viscosity: 3.69 ± 0.42 mPa·s
  speed of sound: 1335.9 ± 2.5 m/s
  mass density: 882.8 ± 2.1 kg/m3
